Assay results published in patent US20220046923A1, “HERBICIDAL CINNOLINIUM COMPOUNDS” (SYNGENTA CROP PROTECTION AG, priority 2018, published 2022).
Structures can show the parent of a compound that is named as a salt.

Legend:
Assay in all cases: Post-emergence efficacy, glasshouse spray test
Type in all cases: in vivo
Conditions in all cases: evaluated after 13 days
Eleusine indica (ELEIN) = system: Eleusine indica (ELEIN)
Procedure, shortened: (§1)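 Efficacy was rated 13 days post-treatment on a 0–100 damage scale. Treatment was a post-emergence spray on plants raised 14 days in soil at 24/16 °C, 14 h photoperiod and 65% humidity.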

Setaria faberi (SETFA) = system: Setaria faberi (SETFA)
Procedure, shortened: as §1

Lolium perenne (LOLPE) = system: Lolium perenne (LOLPE)
Procedure, shortened: as §1

[1] = system: Amaranthus palmeri (AMAPA)
Procedure, shortened: as §1

[2] = system: Euphorbia heterophylla (EPHHL)
Procedure, shortened: as §1

[3] = system: Chenopodium album (CHEAL)
Procedure, shortened: as §1

[4] = system: Digitaria sanguinalis (DIGSA)
Procedure, shortened: as §1

[5] = system: Ipomoea hederacea (IPOHE)
Procedure, shortened: as §1

[6] = system: Echinochloa crus-galli (ECHCG)
Procedure, shortened: as §1

[7] = Eleusine indica, post-emergence, 312 h, application rate 1000 g/Ha, read-out: Control of weed species ELEIN after post-emergence application (100=total damage to plant; 0=no damage to plant)
[8] = Setaria faberi, post-emergence, 312 h, application rate 1000 g/Ha, read-out: Control of weed species SETFA after post-emergence application (100=total damage to plant; 0=no damage to plant)
[9] = Lolium perenne, post-emergence, 312 h, application rate 1000 g/Ha, read-out: Control of weed species LOLPE after post-emergence application (100=total damage to plant; 0=no damage to plant)
[10] = Amaranthus palmeri, post-emergence, 312 h, application rate 1000 g/Ha, read-out: Control of weed species AMAPA after post-emergence application (100=total damage to plant; 0=no damage to plant)
[11] = Euphorbia heterophylla, post-emergence, 312 h, application rate 1000 g/Ha, read-out: Control of weed species EPHHL after post-emergence application (100=total damage to plant; 0=no damage to plant)
[12] = Chenopodium album, post-emergence, 312 h, application rate 1000 g/Ha, read-out: Control of weed species CHEAL after post-emergence application (100=total damage to plant; 0=no damage to plant)
[13] = Digitaria sanguinalis, post-emergence, 312 h, application rate 1000 g/Ha, read-out: Control of weed species DIGSA after post-emergence application (100=total damage to plant; 0=no damage to plant)
[14] = Ipomoea hederacea, post-emergence, 312 h, application rate 1000 g/Ha, read-out: Control of weed species IPOHE after post-emergence application (100=total damage to plant; 0=no damage to plant)
[15] = Echinochloa crus-galli, post-emergence, 312 h, application rate 1000 g/Ha, read-out: Control of weed species ECHCG after post-emergence application (100=total damage to plant; 0=no damage to plant)

SMILES | pest or weed control at 1000 g/ha (Eleusine indica (ELEIN); [7]) | pest or weed control at 1000 g/ha (Setaria faberi (SETFA); [8]) | pest or weed control at 1000 g/ha (Lolium perenne (LOLPE); [9]) | pest or weed control at 1000 g/ha [1, 10] | pest or weed control at 1000 g/ha [2, 11] | pest or weed control at 1000 g/ha [3, 12] | pest or weed control at 1000 g/ha [4, 13] | pest or weed control at 1000 g/ha [5, 14] | pest or weed control at 1000 g/ha [6, 15] | other results
CC(=O)Nc1cccc2cc[n+](CCS(=O)(=O)[O-])nc12 [Compound A107, 2-(8-acetamidocinnolin-2-ium-2-yl)ethanesulfonate] |  |  |  |  |  |  |  |  |  | pest or weed control at 130 g/ha (Eleusine indica (ELEIN); Eleusine indica, post-emergence, 312 h, application rate 130 g/Ha, read-out: Control of weed species ELEIN after post-emergence application (100=total damage to plant; 0=no damage to plant)): 40%; pest or weed control at 130 g/ha (Setaria faberi (SETFA); Setaria faberi, post-emergence, 312 h, application rate 130 g/Ha, read-out: Control of weed species SETFA after post-emergence application (100=total damage to plant; 0=no damage to plant)): 70%; pest or weed control at 130 g/ha (Lolium perenne (LOLPE); Lolium perenne, post-emergence, 312 h, application rate 130 g/Ha, read-out: Control of weed species LOLPE after post-emergence application (100=total damage to plant; 0=no damage to plant)): 40%; pest or weed control at 130 g/ha ([1]; Amaranthus palmeri, post-emergence, 312 h, application rate 130 g/Ha, read-out: Control of weed species AMAPA after post-emergence application (100=total damage to plant; 0=no damage to plant)): 60%; pest or weed control at 130 g/ha ([2]; Euphorbia heterophylla, post-emergence, 312 h, application rate 130 g/Ha, read-out: Control of weed species EPHHL after post-emergence application (100=total damage to plant; 0=no damage to plant)): 50%; pest or weed control at 130 g/ha ([3]; Chenopodium album, post-emergence, 312 h, application rate 130 g/Ha, read-out: Control of weed species CHEAL after post-emergence application (100=total damage to plant; 0=no damage to plant)): 40%; pest or weed control at 130 g/ha ([4]; Digitaria sanguinalis, post-emergence, 312 h, application rate 130 g/Ha, read-out: Control of weed species DIGSA after post-emergence application (100=total damage to plant; 0=no damage to plant)): 70%; pest or weed control at 130 g/ha ([5]; Ipomoea hederacea, post-emergence, 312 h, application rate 130 g/Ha, read-out: Control of weed species IPOHE after post-emergence application (100=total damage to plant; 0=no damage to plant)): 40%; pest or weed control at 130 g/ha ([6]; Echinochloa crus-galli, post-emergence, 312 h, application rate 130 g/Ha, read-out: Control of weed species ECHCG after post-emergence application (100=total damage to plant; 0=no damage to plant)): 80%
CONC(=O)C[n+]1cc(C)c2cc(C)cc(C)c2n1 [Compound A5] | 10% | 10% | 0% | 30% | 30% | 20% | 10% | 20% | 0% | 
O=S(=O)([O-])OC[n+]1ccc2ccccc2n1 [Compound A31, cinnolin-2-ium-2-ylmethyl hydrogen sulfate] | 0% | 0% | 0% | 30% | 30% | 20% | 0% | 30% | 0% | 
O=S(=O)([O-])CC[n+]1ccc2cccc(Cl)c2n1 [Compound A22] | 70% | 30% | 20% | 70% | 70% | 70% | 50% | 20% | 40% | 
C[C@H](CNS(=O)(=O)[O-])[n+]1ccc2ccccc2n1 [Compound A49] | 90% | 60% | 50% | 100% | 90% | 90% | 70% | 80% | 60% | 
COC(=O)C[n+]1cc(C)c2cc(C)ccc2n1 [Compound A9] | 70% | 10% | 10% | 10% | 50% | 60% | 40% | 20% | 10% | 
Cc1cc(C)c2n[n+](CC(=O)[O-])cc(C)c2c1 [Compound A4] | 20% | 0% | 10% | 40% | 40% | 10% | 10% | 30% | 10% | 
CSc1c[n+](CCS(=O)(=O)O)nc2ccccc12.O=C([O-])C(F)(F)F [Compound A44] |  |  |  |  |  |  |  |  |  | Control of weed species ELEIN after post-emergence application (100=total damage to plant; 0=no damage to plant) (Eleusine indica (ELEIN); application rate 1000 g/Ha): 70; Control of weed species SETFA after post-emergence application (100=total damage to plant; 0=no damage to plant) (Setaria faberi (SETFA); application rate 1000 g/Ha): 30; Control of weed species LOLPE after post-emergence application (100=total damage to plant; 0=no damage to plant) (Lolium perenne (LOLPE); application rate 1000 g/Ha): 0; Control of weed species AMAPA after post-emergence application (100=total damage to plant; 0=no damage to plant) ([1]; application rate 1000 g/Ha): 30; Control of weed species EPHHL after post-emergence application (100=total damage to plant; 0=no damage to plant) ([2]; application rate 1000 g/Ha): 90; Control of weed species CHEAL after post-emergence application (100=total damage to plant; 0=no damage to plant) ([3]; application rate 1000 g/Ha): 30; Control of weed species DIGSA after post-emergence application (100=total damage to plant; 0=no damage to plant) ([4]; application rate 1000 g/Ha): 30; Control of weed species IPOHE after post-emergence application (100=total damage to plant; 0=no damage to plant) ([5]; application rate 1000 g/Ha): 20; Control of weed species ECHCG after post-emergence application (100=total damage to plant; 0=no damage to plant) ([6]; application rate 1000 g/Ha): 10
COC(=O)C[n+]1cc(C)c2cc(C)cc(C)c2n1 [Compound A3] | 0% | 10% | 20% | 20% | 20% | 10% | 0% | 10% | 0% | 
